Reference: patent EP0739978A2, “Hydantoinase from agrobacterium tumefaciens and its use for the preparation of optically pure N-carbamyl-D-amino acids from racemic hydantoins” (W.R. Grace & Co.-Conn., priority 1995, dated 1996)

Legend:
[1] = test system: A. tumefaciens ATCC 55632; assay: Induction of hydantoinase activity, basal salts medium with yeast extract and glucose; format: cell-based; settings: addition 2 mg/ml, cells harvested after 8 hours; no addition 0.06
Description: In particular it should be noted that the substrate specificity of hydantoinase from A. tumefaciens ATCC 55632 differs substantially from those described for other Agrobacterium species (5 and 6) due to its high relative activity with dihydrouracil and 5-methylhydantoin and its relatively low rate of hydrolysis with 5-benzylhydantoin F. Induction of hydantoinase activity. A. tumefaciens ATCC 55632 was grown in a medium containing basal salts medium, 1% yeast extract and 20 mM glucose. Various hydantoins or carbamyl amino acids were added to a concentration of 2 mg/ml to induce hydantoinase activity. Cells were harvested after 8 hours, hydantoinase extracts were prepared and hydantoinase activity was determined. […]

[2] = test system: A. tumefaciens ATCC 55632; assay: Induction of hydantoinase activity, complex medium (separate experiment); format: cell-based; settings: for Specific Activity (Units/mg): inducer 1 gm/liter, complex medium, 24 hours at 30°C, no inducer 0.13
Description: 2,4-Thiouracil (2,4-dithiouracil) has been reported to induce hydantoinase activity in Agrobacterium IP I-671 by 40-fold [Meyer, et al., FEMS 109:71(1993)]. In a separate experiment, hydantoinase activities were determined following the growth of A. tumefaciens ATCC 55632 on a complex medium (750 ml) (see media preparation described in Example 1) containing the inducing compounds at 1 gm/liter. The culture media were inoculated with 24 hour seed culture of A. tumefaciens ATCC 55632 and incubated for 24 hours with shaking at 30°C. Hydantoinase extracts were prepared and the effect of 2,4-thiouracil on hydantoinase induction of A. tumefaciens is shown in Table 9.

Agrobacterium IP I-671 = settings: cited from earlier work
[3] = test system: A. tumefaciens ATCC 55632 hydantoinase; assay: Substrate specificity; format: biochemical; settings: for Relative Activity (%): substrate 5 mg/ml in 50 mM Tris-HCl pH 9.0, 40°C, 10 minutes, DL-5-Methylhydantoin = 100; for % Relative Activity with: ATCC 55632: Table 6 values rescaled to 5,6-Dihydrouracil = 100
Description: A. Temperature/activity relationship. Hydantoinase activity was measured using a modification of the colorimetric procedure for detecting N-carbamyl amino acids with p-dimethylaminobenzaldehyde (PDMB) as described by Cecere, et al. (FEBS Letters, 57:192 (1975)). Reaction mixtures (total vol. of 0.4 ml in microfuge tubes) contained 75 µmol of DL-5-methylhydantoin (unless designated otherwise) in 50 mM Tris-HCl buffer (pH 9.0) and a suitable amount of hydantoinase extract. Hydantoinase extracts were added to reaction mixtures which had been pre-equilibrated at 40°C, and after 10 minutes incubation at this temperature, reactions were terminated by the addition of 100 µl of 10% (weight/volume) trichloroacetic acid, followed by 100 µl of 10% (weight/volume) PDMB in 6 N HCl. The solutions were mixed, diluted with 0.6 ml of water and centrifuged at 10,000 rpm for 5 minutes. The absorbencies of the supernatant fractions were determined at 440 nm with a Shimadzu Model 160 spectrophotometer. One unit of activity is defined as the amount of enzyme required to form 1 µmol of N-carbamyl amino acid under these conditions. Protein was determined by the BCA assay as per the manufacturer's instructions. (Pierce Chemical Co., Rockford, IL). Specific activity is expressed as units per mg protein. For the determination of the effect of temperature on hydantoinase activity, hydantoinase extracts of A. tumefaciens were added to reaction mixtures pre-equilibrated at various temperatures and activities were determined by the aforementioned assay. Controls (minus enzyme) were run for each temperature and the values obtained were subtracted from the test sample.
Referring to Table 5, the hydantoinase of the present invention differs from previously described hydantoinases in its combination of high temperature and pH optima, pH stability and lack of requirement or stimulation by metal ions. […] E. Substrate specificity. The substrate specificity of the A. tumefaciens ATCC 55632 hydantoinase was determined by adding hydantoinase extract to 0.4 ml of substrate solution (5 mg/ml 50 mM Tris-HCl buffer, pH 9.0) and incubating the reaction mixtures at 40°C in a water bath for 10 minutes in sealed tubes. The reactions were terminated and further processed as described previously. Controls (minus enzyme) were run for each substrate the values obtained were subtracted from the test sample.

hydantoinase [4] = biological target: hydantoinase (Pseudomonas putida, UniProt Q59699); settings: Pseudomonas fluorescens DSM 84 hydantoinase; cited from earlier work
hydantoinase [5] = settings: P. striata hydantoinase; cited from earlier work
hydantoinase [6] = settings: Pseudomonas sp. AJ 11220 hydantoinase; cited from earlier work
hydantoinase [7] = settings: Agrobacterium radiobacter hydantoinase; cited from earlier work
hydantoinase [8] = settings: Agrobacterium IP I671 hydantoinase; cited from earlier work
hydantoinase [9] = settings: Arthrobacter crystallopoietes AM2 hydantoinase; cited from earlier work
[10] = test system: Hydantoinase extract of A. tumefaciens ATCC 55632; assay: Hydantoinase activation by metals; format: biochemical; settings: 2 mM metal ion, dialyzed extract pre-incubated 30 minutes, assay at 40°C pH 9.0; control without addition 26.4
Description: Reaction mixtures (total vol. of 0.4 ml in microfuge tubes) contained 75 µmol of DL-5-methylhydantoin (unless designated otherwise) in 50 mM Tris-HCl buffer (pH 9.0) and a suitable amount of hydantoinase extract. Hydantoinase extracts were added to reaction mixtures which had been pre-equilibrated at 40°C, and after 10 minutes incubation at this temperature, reactions were terminated by the addition of 100 µl of 10% (weight/volume) trichloroacetic acid, followed by 100 µl of 10% (weight/volume) PDMB in 6 N HCl. The solutions were mixed, diluted with 0.6 ml of water and centrifuged at 10,000 rpm for 5 minutes. The absorbencies of the supernatant fractions were determined at 440 nm with a Shimadzu Model 160 spectrophotometer. One unit of activity is defined as the amount of enzyme required to form 1 µmol of N-carbamyl amino acid under these conditions. Protein was determined by the BCA assay as per the manufacturer's instructions. […] Specific activity is expressed as units per mg protein.
D. Hydantoinase activation by metals. […] Solutions (360 µl) containing either 2 mM Mg^++, Co^++ or Ni^++ in 50 mM Tris buffer, pH 9.0 were pre-incubated with dialyzed hydantoinase extract for 30 minutes at ambient temperature. The reaction mixtures were equilibrated in a 40°C water bath for 2 minutes. The hydantoinase assay was started immediately with the addition of 40 µl DL-5-methylhydantoin (100 mg/ml in 50 mM Tris-HCl buffer, pH 9.0).

Chain of hydantoinase (Pseudomonas putida, UniProt Q59699) (Q59699 whole entry): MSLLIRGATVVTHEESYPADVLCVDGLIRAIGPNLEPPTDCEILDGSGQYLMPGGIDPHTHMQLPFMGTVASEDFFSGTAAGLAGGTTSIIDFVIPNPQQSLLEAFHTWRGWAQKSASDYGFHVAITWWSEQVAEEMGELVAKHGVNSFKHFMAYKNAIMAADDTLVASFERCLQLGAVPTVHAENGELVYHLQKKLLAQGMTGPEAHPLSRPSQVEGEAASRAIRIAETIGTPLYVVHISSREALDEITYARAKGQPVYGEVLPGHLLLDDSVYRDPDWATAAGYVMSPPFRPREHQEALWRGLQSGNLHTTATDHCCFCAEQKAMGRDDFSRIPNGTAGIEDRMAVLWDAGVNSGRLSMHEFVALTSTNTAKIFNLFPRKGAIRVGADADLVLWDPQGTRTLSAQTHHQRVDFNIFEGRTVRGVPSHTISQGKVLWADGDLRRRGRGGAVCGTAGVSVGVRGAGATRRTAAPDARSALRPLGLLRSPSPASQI

Molecule: NC(=O)NCC(=O)O [Hydantoic acid]
- Specific Activity (U/mg) [1]: 1.34 U/mg

Molecule: O=C1CNC(=O)N1 [Hydantoin]
- Specific Activity (U/mg) [1]: 1.44 U/mg
- increase of hydantoinase activity ([2]; A. tumefaciens ATCC 55632, versus no inducer): 10 fold
- Specific Activity (Units/mg) [2]: 1.37 Units/mg
- induction of hydantoinase activity (in words) (Agrobacterium IP I-671; FEMS 109:71, 1993): does not induce hydantoinase activity

Molecule: CC(C)CC1NC(=O)NC1=O (racemic) [DL-5-Isobutylhydantoin]
- Relative Activity (%) [3]: 77%

Molecule: CC(C)C1NC(=O)NC1=O (racemic) [DL-5-Isopropylhydantoin]
- Relative Activity (%) [3]: 73%

Molecule: CSCCC1NC(=O)NC1=O (centres unmarked) [5(2-methylthioethyl) hydantoin]
- % Relative Activity with: ATCC 55632 [3]: 65%
- Relative Activity (%) [3]: 81%
- % Relative Activity with: 2 (hydantoinase [4]): 41%
- % Relative Activity with: 3 (hydantoinase [5]): 48%
- % Relative Activity with: 4 (hydantoinase [6]): 100%
- % Relative Activity with: 5 (hydantoinase [7]): 100%
- % Relative Activity with: 6 (hydantoinase [8]): 55%

Molecule: O=C1NC(=O)C(c2ccccc2)N1 (racemic) [DL-5-Phenylhydantoin]
- % Relative Activity with: ATCC 55632 [3]: 68%
- Relative Activity (%) [3]: 85%
- % Relative Activity with: 1 (hydantoinase [9]): 37%
- % Relative Activity with: 3 (hydantoinase [5]): 25%
- % Relative Activity with: 4 (hydantoinase [6]): 34%
- % Relative Activity with: 5 (hydantoinase [7]): 51%

Molecule: O=C1NC(=O)C(Cc2ccccc2)N1 (racemic) [DL-5-Benzylhydantoin]
- % Relative Activity with: ATCC 55632 [3]: 15%
- Relative Activity (%) [3]: 19%
- % Relative Activity with: 2 (hydantoinase [4]): 2%
- % Relative Activity with: 4 (hydantoinase [6]): 57%
- % Relative Activity with: 5 (hydantoinase [7]): 32%
- % Relative Activity with: 6 (hydantoinase [8]): 100%

Molecule: O=C1CCNC(=O)N1 [5,6-Dihydrouracil]
- % Relative Activity with: ATCC 55632 [3]: 100%
- Relative Activity (%) [3]: 125%
- Specific Activity (U/mg) [1]: 0.22 U/mg
- % Relative Activity with: 1 (hydantoinase [9]): 78%
- % Relative Activity with: 2 (hydantoinase [4]): 100%
- % Relative Activity with: 3 (hydantoinase [5]): 100%
- % Relative Activity with: 4 (hydantoinase [6]): 9%
- % Relative Activity with: 6 (hydantoinase [8]): 10%

Molecule: CN1CC(=O)NC1=O [1-Methylhydantoin]
- Specific Activity (U/mg) [1]: 0.09 U/mg

Molecule: [Co+2] [Cobalt]
- Hydantoinase Activity (Units/ml) [10]: 27.9 Units/ml

Molecule: Tryptophan hydantoin
- Specific Activity (U/mg) [1]: 0.10 U/mg

Molecule: CCC(C)C1NC(=O)NC1=O (racemic) [DL-5-(sec)-Butylhydantoin]
- Relative Activity (%) [3]: 76%

Molecule: O=C1NC(=O)C(CO)N1 (racemic) [DL-5-Hydroxymethylhydantoin]
- Relative Activity (%) [3]: 22%

Molecule: S=c1cc[nH]c(=S)[nH]1 [2,4-Thiouracil]
- induction of hydantoinase activity (in words) ([2]; A. tumefaciens ATCC 55632): does not appear to induce hydantoinase activity
- Specific Activity (Units/mg) [2]: 0.15 Units/mg
- induction of hydantoinase activity (Agrobacterium IP I-671; Meyer, et al., FEMS 109:71(1993)): 40 fold

Molecule: NC(=O)N[C@@H](Cc1ccccc1)C(=O)O [N-carbamylphenylalanine]
- Specific Activity (U/mg) [1]: 0.13 U/mg

Molecule: [Ni+2] [Nickel]
- Hydantoinase Activity (Units/ml) [10]: 25.0 Units/ml

Molecule: CC1NC(=O)NC1=O (racemic) [DL-5-Methylhydantoin]
- % Relative Activity with: ATCC 55632 [3]: 80%
- Relative Activity (%) [3]: 100%
- Specific Activity (U/mg) [1]: 1.65 U/mg
- % Relative Activity with: 1 (hydantoinase [9]): 100%
- % Relative Activity with: 3 (hydantoinase [5]): 45%
- % Relative Activity with: 5 (hydantoinase [7]): 24%
- % Relative Activity with: 6 (hydantoinase [8]): 37%

Molecule: C[C@H](NC(N)=O)C(=O)O [N-carbamyl alanine]
- Specific Activity (U/mg) [1]: 0.44 U/mg

Molecule: [Mg+2] [Magnesium]
- Hydantoinase Activity (Units/ml) [10]: 24.8 Units/ml
